In patent US20190070266A1 (Novo Nordisk A/S, priority 2016, published 2019):

Test system: adult human subjects with type 2 diabetes at high risk for cardiovascular events
Test: Same trial: adverse events by preferred term with frequency of at least 0.1%
Assay type: in vivo
Settings: full analysis set
Description: A long-term, multi-centre, international, randomised double-blind, placebo-controlled trial with 9340 human subjects was carried out with treatment for at least 3.5 years and up to 5 years per subject; and this trial concerned the incidence of cardiovascular events in adult human subjects with type 2 diabetes that were at high risk for cardiovascular events, including such subjects with existing cardiovascular disease. […] All trial endpoints were collected and assessed throughout the entire duration of the trial. Subject inclusion and exclusion criteria were as described in Table 2. The subject's characteristics, cardiovascular risk profile, renal function, cardiovascular medication, and antidiabetic treatment regimens of the randomised subjects at baseline were as shown in Tables 3a-e. Overall trial duration was planned as 18 months of recruitment period followed by 42 months of treatment from last subject randomised. […] After randomisation, treatment with liraglutide or placebo was double-blind throughout the trial. […] The term “placebo” as used herein refers to a formulation identical to the liraglutide formulation except not comprising liraglutide and the placebo was administered in the volume used in the equivalent liraglutide dosage. […] The dosage could be reduced at any time in the trial if required by the subject's tolerance to the trial product. […] The subcutaneous injection was made either in the abdomen, thigh or upper arm.
The term “baseline” herein (e.g. used as part of “baseline characteristics” or “baseline cardiovascular risk profile”) may refer to the level of a certain parameter (e.g. level of HbA1c) by the determination made in connection with the medical visit at the time of randomisation of the subject.
The results of this trial may be presented herein as a number or fraction of subjects experiencing an event. Alternatively, the results of this trial may be presented with hazard ratios estimated in a Cox proportional hazard model, which is the standard statistical model used for estimating time to an event. […] A 5% significance level is the standard level for investigating significance in clinical trials.

[1] = Preferred term: Diabetic foot infection

## CCCCCCCCCCCCCCCC(=O)N[C@@H](CCC(=O)NCCCC[C@H](NC(=O)[C@H](C)NC(=O)[C@H](C)NC(=O)[C@H](CCC(N)=O)NC(=O)CNC(=O)[C@H](CCC(=O)O)NC(=O)[C@H](CC(C)C)NC(=O)[C@H](Cc1ccc(O)cc1)NC(=O)[C@H](CO)NC(=O)[C@H](CO)NC(=O)[C@@H](NC(=O)[C@H](CC(=O)O)NC(=O)[C@H](CO)NC(=O)[C@@H](NC(=O)[C@H](Cc1ccccc1)NC(=O)[C@@H](NC(=O)CNC(=O)[C@H](CCC(=O)O)NC(=O)[C@H](C)NC(=O)[C@@H](N)Cc1cnc[nH]1)[C@@H](C)O)[C@@H](C)O)C(C)C)C(=O)N[C@@H](CCC(=O)O)C(=O)N[C@@H](Cc1ccccc1)C(=O)N[C@H](C(=O)N[C@@H](C)C(=O)N[C@@H](Cc1c[nH]c2ccccc12)C(=O)N[C@@H](CC(C)C)C(=O)N[C@H](C(=O)N[C@@H](CCCNC(=N)N)C(=O)NCC(=O)N[C@@H](CCCNC(=N)N)C(=O)NCC(=O)O)C(C)C)[C@@H](C)CC)C(=O)O [Liraglutide, Arg34,Lys26-(N-epsilon-(gamma-L-glutamyl(N-alfa-hexadecanoyl)))-GLP-1(7-37)]
[1]
  Adverse events by preferred term, % (proportion of subjects experiencing at least one event): 0.3%
  Adverse events by preferred term, R (rate, events per 100 PYO): <0.1 events per 100 PYO
Preferred term: Diabetic foot
  Adverse events by preferred term, % (proportion of subjects experiencing at least one event): 2.8%
  Adverse events by preferred term, R (rate, events per 100 PYO): 1.0 events per 100 PYO
Preferred term: Gangrene
  Adverse events by preferred term, % (proportion of subjects experiencing at least one event): 0.2%
  Adverse events by preferred term, R (rate, events per 100 PYO): <0.1 events per 100 PYO
Preferred term: Skin ulcer
  Adverse events by preferred term, % (proportion of subjects experiencing at least one event): 0.6%
  Adverse events by preferred term, R (rate, events per 100 PYO): 0.2 events per 100 PYO
